Source: patent publication US8178688B2, “Benzamidine derivatives, process for the preparation thereof and pharmaceutical composition comprising the same” (Dong Wha Pharmaceutical Co., Ltd., priority 2004, dated 2012)

test system: osteoclast differentiation; experiment: Inhibitory effects on osteoclast differentiation (co-culture of bone marrow cells with osteoblast, TRAP staining); format: cell-based, mice; details: Mus musculus, Osteoclast, 168 h, read-out: % inhibitory activity on osteoclastogenesis
Method in brief: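 Bone marrow cells from 6–8-week male ddY mice co-cultured with neonatal ICR mouse calvarial osteoblasts in α-MEM/FBS with dexamethasone (10^−7M) and vitamin D3 (10^−8M) for 7 days, compound and medium renewed every 2–3 days. TRAP-positive cells with ≥3 nuclei counted; inhibition given as percent of control.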

Row | Compound | inhibition at 1 µM
1 | CN(CCN1CCOCC1)c1nc(-c2ccc(OCCCCCOc3ccc(C(=N)NO)cc3)cc2)c(C2CCCC2)s1 [Example 153, N-hydroxy-4-(5-[4-(5-cyclopentyl-2-[methyl-(2-morpholinoethyl)amino]-1,3-thiazol-4-yl)phenoxy]pentoxy)-benzamidine] | 96.4%

same assay, conditions: Mus musculus, Osteoclast, 168 h; 1 m; co-culture of bone marrow cells and osteoblast, 7 days, TRAP-positive osteoclasts versus controls; read-out: % inhibitory activity on osteoclastogenesis

Row | Compound | inhibition at 1 µM
2 | CCCN(CCC)c1nc(-c2ccc(OCCCCCOc3ccc(C(=N)NO)cc3)cc2)c(CC2CCCC2)s1 [Example 149, N-hydroxy-4-(5-[4-(5-cyclopentylmethyl-2-dipropylamino-1,3-thiazol-4-yl)phenoxy]pentoxy)-benzamidine] | 79.2%
3 | CCCCc1sc(N(CC)CC)nc1-c1ccc(OCCCCCOc2ccc(C(=N)NO)cc2)cc1 [Example 150, N-hydroxy-4-(5-[4-(5-butyl-2-diethylamino-1,3-thiazol-4-yl)phenoxy]pentoxy)-benzamidine] | 95.4%
4 | CC(C)Cc1sc(N(C)CCN2CCOCC2)nc1-c1ccc(OCCCCCOc2ccc(C(=N)NO)cc2)cc1 [Example 154, N-hydroxy-4-(5-[4-(5-isobutyl-2-[methyl-(2-morpholinoethyl)amino]-1,3-thiazol-4-yl)phenoxy]pentoxy)-benzamidine] | 9.3%
5 | CCN(CC)c1nc(-c2ccc(OCCCCCOc3ccc(C(=N)NO)cc3)cc2)c(C2CCCC2)s1 [Example 156, N-hydroxy-4-(5-[4-(5-cyclopentyl-2-diethylamino-1,3-thiazol-4-yl)phenoxy]pentoxy)-benzamidine] | 15.6%
6 | CCCN(CCC)c1nc(-c2ccc(OCCCCCOc3ccc(C(=N)NO)cc3)cc2)c(C(C)C)s1 [Example 157, N-hydroxy-4-(5-[4-(5-isopropyl-2-dipropylamino-1,3-thiazol-4-yl)phenoxy]pentoxy)-benzamidine] | 92.3%
7 | CCN(CC)c1nc(-c2ccc(OCCCCCOc3ccc(C(=N)NO)cc3)cc2)c(CC2CCCC2)s1 [Example 160, N-hydroxy-4-(5-[4-(5-cyclopentylmethyl-2-diethylamino-1,3-thiazol-4-yl)phenoxy]pentoxy)-benzamidine] | 83.7%
8 | CC(C)c1sc(N(C)C)nc1-c1ccc(OCCCCCOc2ccc(C(=N)NO)cc2)cc1 [Example 161, N-hydroxy-4-(5-[4-(5-isopropyl-2-dimethylamino-1,3-thiazol-4-yl)phenoxy]pentoxy)-benzamidine] | 89.1%
9 | CCN(CC)c1nc(-c2ccc(OCCCCCOc3ccc(C(=N)NO)cc3)cc2)c(C(C)C)s1 [Example 162, N-hydroxy-4-(5-[4-(5-isopropyl-2-diethylamino-1,3-thiazol-4-yl)phenoxy]pentoxy)-benzamidine] | 87.4%
10 | CN(C)c1nc(-c2ccc(OCCCCCOc3ccc(C(=N)NO)cc3)cc2)c(CC2CCCC2)s1 [Example 163, N-hydroxy-4-(5-[4-(5-cyclopentylmethyl-2-dimethylamino-1,3-thiazol-4-yl)phenoxy]pentoxy)-benzamidine] | 88.1%
11 | CN1CCN(c2nc(-c3ccc(OCCCCCOc4ccc(C(=N)NO)cc4)cc3)c(CC3CCCC3)s2)CC1 [Example 170, N-hydroxy-4-(5-(4-[5-cyclopentylmethyl-2-(4-methylpiperazino)-1,3-thiazol-4-yl]phenoxy)-pentoxy)-benzamidine] | 93.9%
12 | C=Cc1sc(N2CCOCC2)nc1-c1ccc(OCCCCCOc2ccc(C(=N)NO)cc2)cc1 [Example 171, N-hydroxy-4-(5-[4-(5-vinyl-2-morpholin-4-yl-1,3-thiazol-4-yl)phenoxy]pentoxy)-benzamidine] | 96.2%
13 | N=C(NO)c1ccc(OCCCCCOc2ccc(-c3nc(N4CCOCC4)sc3C3CCCC3)cc2)cc1 [Example 172, N-hydroxy-4-(5-[4-(5-cyclopentyl-2-morpholin-4-yl-1,3-thiazol-4-yl)phenoxy]pentoxy)-benzamidine] | 87.8%
14 | CC(C)Cc1sc(N2CCOCC2)nc1-c1ccc(OCCCCCOc2ccc(C(=N)NO)cc2)cc1 [Example 173, N-hydroxy-4-[5-[4-(5-isobutyl-2-morpholin-4-yl-1,3-thiazol-4-yl)phenoxy]pentoxy)-benzamidine] | 9%
15 | N=C(NO)c1ccc(OCCCCCOc2ccc(-c3csc(N4CCOCC4)n3)cc2)cc1 [Example 175, N-hydroxy-4-(5-[4-(2-morpholin-4-yl-1,3-thiazol-4-yl)phenoxy]pentoxy)-benzamidine] | 61.9%
16 | Cc1nc(-c2ccc(OCCOCCOc3ccc(C(=N)NO)cc3)cc2)c(C(C)C)s1 [Example 178, N-hydroxy-4-(2-[2-(4-(5-isopropyl-2-methyl-1,3-thiazol-4-yl)phenoxy)-ethoxy]-ethoxy)-benzamidine] | 36.8%
17 | Cc1nc(-c2ccc(OCCC(C)(O)CCOc3ccc(C(=N)NO)cc3)cc2)c(C(C)C)s1 (stereo not shown) [Example 179, N-hydroxy-4-(3-hydroxy-5-[4-(5-isopropyl-2-methyl-1,3-thiazol-4-yl)-phenoxy]-3-methyl-pentoxy)-benzamidine] | 100%
18 | Cc1nc(-c2ccc(OCC(C)NCCOc3ccc(C(=N)NO)cc3)cc2)c(C(C)C)s1 (stereo not shown) [Example 180, N-hydroxy-4-(2-[2-(4-(5-isopropyl-2-methyl-1,3-thiazol-4-yl)-phenoxy)-1-methyl-ethylamino]-ethoxy)-benzamidine] | 32.6%
19 | Cc1nc(-c2ccc(OCCCCC(=O)Nc3ccc(C(=N)NO)cc3)cc2)c(C(C)C)s1 [Example 182, N-hydroxy-4-(5-[4-(5-isopropyl-2-methyl-1,3-thiazol-4-yl)-phenoxy]-pentanoyl-amino)-benzamidine] | 81.1%
20 | Cc1nc(-c2ccc(OCCCCCN(C)c3ccc(C(=N)NO)cc3)cc2)c(C(C)C)s1 [Example 183, N-hydroxy-4-(5-[4-(5-isopropyl-2-methyl-1,3-thiazol-4-yl)-phenoxy]-pentyl-methyl-amino)-benzamidine] | 65.6%
21 | Cc1nc(-c2ccc(OCCNCCOc3ccc(C(=N)NO)cc3)cc2)c(C(C)C)s1 [Example 186, N-hydroxy-4-(2-[2-(4-(5-isopropyl-2-methyl-1,3-thiazol-4-yl)phenoxy)-ethylamino]-ethoxy)-benzamidine] | 71%
22 | Cc1nc(-c2ccc(OCCCCCOc3ccc(C(=N)NO)c(NC4CCCCC4)c3)cc2)c(C(C)C)s1 [Example 190, N-hydroxy-2-cyclohexylamino-4-(5-[4-(5-isopropyl-2-methyl-1,3-thiazol-4-yl)-phenoxy]-pentoxy)-benzamidine] | 27.3%
23 | Cc1nc(-c2ccc(OCCCCCOc3ccc(C(=N)NO)cc3)cc2F)c(C(C)C)s1 [Example 191, N-hydroxy-4-(5-[3-fluoro-4-(5-isopropyl-2-methyl-1,3-thiazol-4-yl)-phenoxy]-pentoxy)-benzamidine] | 8.8%

same assay, conditions: co-culture of bone marrow cells and osteoblast, 7 days, TRAP-positive osteoclasts versus controls

Row | Compound | % inhibitory activity on osteoclastogenesis
24 | Cc1sc(N2CCCCC2)nc1-c1ccc(OCCCCCOc2ccc(C(=N)NO)cc2)cc1 [Example 164, N-hydroxy-4-(5-[4-(5-methyl-2-piperdino-1,3-thiazol-4-yl)phenoxy]pentoxy)-benzamidine] | 67.4%
25 | COc1cc(C(=N)NO)ccc1OCCCCCOc1ccc(-c2nc(C)sc2C(C)C)cc1 [Example 189, N-hydroxy-4-(5-[4-(5-isopropyl-2-methyl-1,3-thiazol-4-yl)-phenoxy]-pentoxy-3-methoxy)-benzamidine] | 38.7%
